Data on seven compounds can be found in EPA's ToxValDB 9.5.

Structures are written as SMILES. ≈ marks a conversion by molar mass, not a printed value. Where “and” joins values, the source holds several entries; their conditions need not be identical. Identical values can stand only once.

Series [1] relates to Rattus norvegicus. Nature of the series: LC50. The conditions noted are these: acute; oral; gavage.
Series [2] has as its system Oryctolagus sp. The note with it: New Zealand; for LD50: acute, dermal.
In series [3] the test system is Rattus norvegicus.
Series [4] relates to Cavia porcellus. The note with it: uterotrophic; duration: 12 days; injection; subcutaneous; Guinea Pig; Active.
For series [5], the system named is Rattus norvegicus. The experiment in a line: LC100; higher = less toxic. The conditions noted are these: acute; inhalation; Sprague-Dawley.
Series [6] relates to Rattus norvegicus. The conditions noted are these: oral, gavage.
Series [7] concerns Mus musculus. The experiment in a line: LD100; higher = less toxic. The note with it: acute; oral; gavage; B6C3F1.
Series [8] has as its system Canidae. The note with it: subchronic; duration: 13 weeks; oral; capsule; M/F; Dog Other; histopathologic liver.
Series [9] concerns Mus musculus. The note with it: oral, gavage.
Series [10] has as its system Canidae. The conditions noted are these: chronic, Beagle.
Series [11] deals with Rattus norvegicus. The conditions noted are these: reproduction developmental; inhalation; whole body; M/F; Crl:CD(SD); Hepatic, Urinary.
In series [12] the test system is Rattus norvegicus. The conditions noted are these: dietary / carcinogenicity; duration: 2 years; oral; feed; M/F; Hepatocellular lipid vacuolation.
Series [13] relates to Sus scrofa. The note with it: repeat dose other; oral; diet; M/F; Not specified; Renal proximal tubule degeneration & interstitial nephropathy.
The subject of series [14] is Rattus norvegicus. The experiment in a line: LD10; higher = less toxic. The note with it: acute; inhalation.
The mark [15] stands for this setting: reproduction developmental, duration: 12 days, oral, gavage, F.
Where [16] appears, read: short-term, duration: 28 days, oral, diet, Sprague-Dawley.
Where [17] appears, read: subchronic, duration: 90 days, oral, diet, Sprague-Dawley.
The mark [18] stands for this setting: short-term, duration: 18 days, inhalation, Sprague-Dawley.
[19] abbreviates: reproduction developmental, duration: 13 weeks, B6C3F1, generation: F0.
The mark [20] stands for this setting: reproduction developmental, duration: 13 weeks, oral, gavage, Fischer 344, generation: F0.
Where [21] appears, read: short-term, duration: 28 days, M, Sprague-Dawley, Clinical Observation: Salivation increase + Blood Chemistry: AST increase, T-Cho decrease, CRE increase, TP increase, ALB increase, GLUC ….

One may read the LD50 as the dose at which mortality reaches 50%. The term LOAEL denotes the lowest dose or exposure tested at which an adverse effect was seen. Usually NOAEL stands for the highest dose or exposure tested at which no adverse effect was seen. As to `O=C1c2c(Br)c(Br)c(Br)c(Br)c2C(=O)N1CCN1C(=O)c2c(Br)c(Br)c(Br)c(Br)c2C1=O` [1,2-Bis(tetrabromophthalimido)ethane], the LD50 in series [1] was more than 7500 mg/kg. The figures for the LOAEL in series [2] (setting [15]) and in [3] (setting [17]) were less than 1000 mg/kg-day and not below 1000 mg/kg-day, respectively. The NOAEL was not below 1000 mg/kg-day in series [2] (setting [15]); not below 1000 mg/kg-day in series [3] (developmental, duration: 10 days, oral, gavage, Sprague-Dawley); not below 1000 mg/kg-day in series [3] (reproduction developmental, duration: 10 days, oral, gavage, F, Sprague-Dawley); not below 1000 mg/kg-day in [3] (setting [17]). Besides, the “LOAEL (% diet)” value in [3] (setting [16]) is more than 1. Moreover, the “NOAEL (% diet)” value is not below 1 in series [3] (setting [16]) and 1 in [3] (setting [17]).
As for `CC/C(=C(\c1ccccc1)c1ccc(OCCN(C)C)cc1)c1ccccc1` [Tamoxifen], the LEL in [4] came to 0.1 mg/day.
The term LC50 denotes the concentration that kills 50% of the test population. In the case of `CCC#N` [Propionitrile], the LD50 in series [2] (occlusive) is 90 mg/kg and 40 mg/kg and 56 mg/kg. Besides, the LC50 in [3] (acute, inhalation, Sprague-Dawley) was 3.3 µg/mL (≈ 59.9 µM). Also, the NOAEL was 40 mg/kg-day in [3] (developmental, duration: 6 days, oral, gavage, Sprague-Dawley); more than 471 mg/m3 in series [3] (reproduction developmental, duration: 14 weeks, inhalation, Sprague-Dawley); 135 mg/m3 in series [3] (reproduction developmental, duration: 46 days, inhalation, Sprague-Dawley, generation: F0); 473 mg/m3 in series [3] (reproduction developmental, duration: 46 days, inhalation, Sprague-Dawley, generation: F1); 259 mg/m3 in series [3] (setting [18]). In addition, the lowest-observed-adverse-effect level (LOAEL) in series [3] (setting [18]) was determined as 741 mg/m3. This compound yielded an LC100 in series [5] of 90.3 mg/L.
With `Clc1ccccc1` [Chlorobenzene], in [6] (subchronic, duration: 13 weeks, M/F, Fischer 344, Deaths + Body Weight Changes: decrease + Urinalysis: Volume increase, Coproporphyrin increase + Blood Chemistry: Cho increase, TG decrease, …), the NOEL was less than 60 mg/kg-day. Moreover, the LD100 in [7] was determined as 1000 mg/kg. For the same compound, the LOAEL was 54.5 mg/kg-day in series [8], 250 mg/kg-day in series [9] (setting [19]) and 250 mg/kg-day in series [3] (setting [20]). Besides, the NOAEL was 27.2 mg/kg-day in series [8]; 345 mg/m3 in series [2] (reproduction developmental, duration: 13 days, inhalation, F); 2720 mg/m3 in series [2] (reproduction developmental, duration: 13 days, inhalation, generation: F1); 125 mg/kg-day in series [9] (setting [19]); 125 mg/kg-day in series [3] (setting [20]); 230 mg/m3 in series [3] (reproduction developmental, inhalation, Sprague-Dawley, generation: F0). In addition, the NOAEL in series [3] (reproduction developmental, inhalation, Sprague-Dawley, generation: F1) stood at 2070 mg/m3; in series [3] (reproduction developmental, inhalation, Sprague-Dawley, generation: F2) it was 2070 mg/m3; in [10] (duration: 6 months, inhalation) it was 2.06 mg/L; in series [10] (duration: 93 days, oral) it was 54.5 mg/kg-day; in [11], 230 mg/m3. The median lethal dose (LD50) in series [2] is more than 7940 mg/kg; in series [3] (acute, oral, Sprague-Dawley) it was 1540 mg/kg; in [3] (acute, oral, gavage, Fischer 344), ≥ 2000 mg/kg and ≤ 4000 mg/kg.
In [12], `COC(=O)Nc1nc2ccc(S(=O)c3ccccc3)cc2[nH]1` (configuration not stated) [Oxfendazole] showed an NOEL of 0.7 mg/kg-day.
As to `C[C@@H]1Cc2c(Cl)cc(C(=O)N[C@@H](Cc3ccccc3)C(=O)O)c(O)c2C(=O)O1` [Ochratoxin A], the no observed adverse effect level (NOAEL) in series [6] (setting [21]) is less than 0.2 mg/kg-day. For the same compound, the NOEL in series [6] (setting [21]) is less than 0.2 mg/kg-day; in [6] (subchronic, duration: 13 weeks, M/F, Fischer 344, Body Weight Changes: decrease + Relative Organ Weight: Right kidney decrease + Histopathology: Kidney-Karyomegaly Kidney-Atrophy Kidney/…) it was less than 0.0625 mg/kg-day. Also, the LOEL in [13] was found to be 0.008 mg/kg-day.
Take `C=C1CC(=O)O1` [Diketene]: the LD10 in series [14] is 1270 mg/m3 and ≥ 1190 mg/m3 and ≤ 1410 mg/m3. For the same compound, the 50% lethal dose (LD50) was ≥ 800 mg/kg and ≤ 1600 mg/kg in series [9] (acute); ≥ 400 mg/kg and ≤ 800 mg/kg in series [3] (acute, oral, gavage).
